Results published in US12622917B2, “High-activity Wnt pathway inhibitor compound” (ADLAI NORTYE BIOPHARMA CO., LTD., priority 2020, dated 2026).

Columns and labels:
Type in all cases: cell-based
[1] = system: Colo205-LUC-TCF/LEF M1 reporter cell line (Wnt pathway); assay: Colo205-LUC-TCF/LEF M1 reporter gene (luciferase) inhibition; details: 4 hours incubation, luciferase readout
Description: Colo205 cell line (Cell Bank of Chinese Academy of Sciences, Cat #TCHu102) was purchased from the Cell Bank of Chinese Academy of Sciences. After expansion and subculture, in the exponential growth phase of the cells, transfection with lipo3000 liposome transfection with TCF/LEF transcription factors Driven luciferase reporter plasmid (Promega). […] The plasmid carries a resistance gene for resistance screening. Transfection was carried out in 10 cm culture dishes using conventional complete medium without resistance. After 2 days, the medium with resistance was replaced, and the culture was continued. After that, the resistant medium was replaced every 2 days, and the suspended cells were discarded. The original medium was centrifuged to remove cells and debris and retained as an adaptive medium. When the cells covered the culture dish, the cells were digested, counted, and passaged in a 96-well plate, so that the average number of cells contained in each well was 1.5/well, and the adaptive medium was used for passage. The rest of the cells were frozen. After subculture, culture for 4 hours to allow the cells to adhere to the wall, and then observe the number of cells in each well under a microscope. Wells with only 1 cell per well were labeled as monoclonal wells. Afterwards, normal culture was performed, and the culture medium was replaced every 2 days, and observed. There are holes where the monoclonal cells continue to grow in the early stage, and they are labeled twice, and can be replaced with normal resistant medium. When a monoclonal well was overgrown with a 96-well plate, it is digested and passaged to a 24-well culture plate. After the 24-well plate is overgrown, it is passaged to a 96-well plate and a 6-well plate. The cells in a 96-well plate are at least 6 wells, of which 3 wells were added with known Wnt inhibitors, and the other 3 wells were not treated. After 24 hours, the cells in the 96-well plate were added with a fluorescence detection reagent to detect the fluorescence intensity. Cell lines with fluorescent expression when not treated and decreased fluorescent light after inhibition were selected and further cultured. The Colo205-LUC-TCF/LEF-M1 cell line is one of the cell lines screened above. Its growth curve, cell shape, and cell growth state are similar to those of the original Colo205 cells, and the ratio of the fluorescent signals of the inhibitor-treated and untreated cells is the largest among all cell lines, and the ratio can reach 4-5 times when inhibited at 4 hours, which was completely suitable for the screening of Wnt inhibitors in the later stage.
The Colo205-LUC-TCF/LEF M1 cell line is a reporter tool cell stably transfected with the pGL4.49-LUC2-TCF/LEF vector. The β-catenin Wnt pathway is continuously activated. After adding the inhibitor, the Wnt pathway is inhibited. The expression of firefly luciferase regulated by the[…] cis-element decreased, and after adding the detection substrate, the detected light signal decreased accordingly, so as to detect the inhibitory effect of the compound.
To a 96-well cell culture plate, add 100 uL of the compound with a maximum concentration of 20 uM to each well, and make a 3-fold serial dilution of the compound concentration. Then 10,000 colo205 cells stably transfected with the reporter gene and 100 uL medium were inoculated into each well, and corresponding positive and negative control wells were made at the same time. Put the cells in a 5% CO2 incubator and incubate at 37° C. for 4 hours. After 4 hours, remove the culture medium, add 100 uL of reagent (Promega) containing the corresponding firefly luciferase substrate to each well, and measure the activity of luciferase reporter gene. Luminescence intensity was read with SpectraMax in full wavelength mode. […]

RKO = assay: Proliferation inhibition, non-Wnt mutant control cell line RKO; details: Homo sapiens, Wnt-independent control cell line, 96 hours, read-out: Antiproliferative IC50 RKO
Description: (§1) The cell lines used in the experiment are Colo205 and DU4475 cell lines whose Wnt pathway is continuously activated and whose proliferation is Wnt pathway-dependent; while the BELA and RKO cell lines, whose Wnt pathway is not activated under normal circumstances and the proliferation is independent of Wnt pathway, as control cell lines. It is Judged that the inhibitory effect of the compound of the present invention on Wnt-dependent proliferation is not caused by other non-specific toxicity.
(§2) Treat the Colo205, Du4475, HELA and RKO cell lines cultured in their respective mediums in the logarithmic growth phase, collect the cells and prepare a uniform cell suspension of known concentration, and then add it to the 96-well cell culture plate Cell suspension, so that each well contains 1000 cells. Put it into a 5% CO2 incubator and incubate at 37° C. for 20-24 h. On the second day, the fully dissolved, 3-fold serially diluted compound was added to each cell culture well, so that the final maximum concentration in the cell culture well was 20 uM, and the culture was continued for 96 hours. In this test, Promega's cell viability detection test is used for detection. The more the cells proliferate, the stronger the final signal intensity will be. The detection instrument is SpectraMax, full wavelength mode. The wells only added with DMSO were used as positive control wells, and the wells that were not inoculated with cells were used as negative control wells. […] The IC50 value of cell proliferation inhibition was used to evaluate the inhibitory effect of the compound on the Wnt pathway and the toxic effect on normal cells (Table 2).

Colo205 = assay: Proliferation inhibition, Wnt mutant cell line Colo205; details: Homo sapiens, COLO 205; Colo205, Wnt pathway-dependent, 96 hours; read-out: Antiproliferative IC50 Colo205
Description: as §1, §2

| Structure (SMILES) | IC50 [1] [nM] | IC50 (RKO) [nM] | IC50 (Colo205) [nM] |
| --- | --- | --- | --- |
| C[C@H](O)[C@@]1(C)C(=O)N2CCCc3nc(NCc4ccc(Oc5cnc(C(F)(F)F)nc5)nc4)nc(c32)N1C [240 (W428)] | 16.6 | > 10000 | 11.1 |
| C[C@H]1CN(C)c2nc(NCc3ccc(CCC(F)(F)F)nc3)nc3ccn1c23 [Example 20, (S)-4,6-dimethyl-N-((6-(3,3,3-trifluoropropyl)pyridin-3-yl)methyl)-5,6-dihydro-4H-pyrrole And[3,2,1-de]pteridin-2-amine] | 93 |  |  |
| COCC[C@H]1C(=O)N2CCCc3nc(NCc4ccc(Oc5cnc(C(F)(F)F)nc5)nc4)nc(c32)N1C [211 (W390)] | 43 | > 10000 | 23 |
| C[C@H]1C(=O)N2CCCc3nc(NCc4cnn(Cc5ccc(C(F)(F)F)nc5)c4)nc(c32)N1C [Example 1, (S)-4,5-dimethyl-2-(((1-((6-(trifluoromethyl)pyridine-3-yl)methyl)-1H-pyrazol-4-yl)methyl)amino)-4,5,9,10-tetrahydro-6H,8H-pyrido[3,2,1-de]pteridin-6-one] | 83 |  |  |
| CN1c2nc(NCc3ccc(Oc4cnc(C(F)(F)F)nc4)nc3)nc3c2N(CCC3)C(=O)C12CCOCC2 [217 (W359)] |  | > 10000 | 57 |
| COCCC1C(=O)N2CCCc3nc(NCc4ccc(Oc5cnc(C(F)(F)F)nc5)nc4)nc(c32)N1C (stereo not drawn) [210 (W371)] |  | > 10000 | 60 |
| C[C@H](O)[C@@]1(C)C(=O)N2CCCc3nc(NCc4ccc(Oc5ccc(C(F)(F)F)nc5)nc4)nc(c32)N1C [239 (W427)] | 36 | > 10000 | 28.3 |
| [2H]C([2H])([2H])N1c2nc(NCc3ccc(Oc4ccc(C(F)(F)F)nc4)nc3)nc3c2N(CCC3)C(=O)[C@]1(C)CO [220 (W398)] |  | > 10000 | 48 |
| CN1c2nc(NCc3ccc(Oc4cnc(C(F)(F)F)nc4)nc3)nc3c2N(CCC3)C(=O)[C@@]12CCOC2 [224 (W406)] |  | > 10000 | 63 |
| CCOC[C@H]1C(=O)N2CCCc3nc(NCc4ccc(Oc5cnc(C(F)(F)F)nc5)nc4)nc(c32)N1C [155 (W347)] | 77 | > 10000 | 88 |
| FC1(F)C[C@H]2Cn3ccc4nc(NCc5cnn(Cc6ccc(C(F)(F)F)nc6)c5)nc(c43)N2C1 [69 (W50)] | 21 |  |  |
| CN1c2nc(NCc3ccc(Oc4ccc(C(F)(F)F)nc4)nc3)nc3c2N(CCC3)C(=O)C12CCOC2 (stereo not drawn) [207 (W357)] |  | > 10000 | 84 |
| C[C@H]1C(=O)N2CCCc3nc(NCc4ccc(Oc5ccc(C6CC6)nc5)nc4)nc(c32)N1C [137 (W335), (S)-2-(((6-((6-cyclopropylpyridin-3-yl)oxo)pyridin-3-yl)methyl)amino)-4,5-dimethyl-4,5,9,10-tetrahydro-6H,8H-pyrido[3,2,1-de]pteridin-6-one] |  | > 10000 | 138 |
| [2H]C([2H])([2H])N1c2nc(NCc3cnn(Cc4ccc(C(F)(F)F)nc4)c3)nc3ccn(c23)C[C@@H]1C [73 (W85)] | 24 |  |  |
| COCC[C@@H]1C(=O)N2CCCc3nc(NCc4ccc(Oc5ccc(C(F)(F)F)nc5)nc4)nc(c32)N1C [215 (W391)] |  | > 10000 | 53 |
| C[C@H]1Cn2cc(F)c3nc(NCc4cnn(Cc5ccc(F)cc5)c4)nc(c32)N1C [64 (W23)] | 41 |  |  |

| Structure (SMILES) | IC50 [1] [nM] | IC50 (RKO) [nM] | IC50 (Colo205) [nM] |
| --- | --- | --- | --- |
| CN1c2nc(NCc3ccc(Oc4cc(C(F)(F)F)nn4C)nc3)nc3c2N(CCC3)C(=O)[C@@H]1CO [222 (W402)] |  | > 10000 | 61 |
| CN1c2nc(NCc3ccc(Oc4cnc(C(F)(F)F)nc4)nc3)nc3c2N(CCC3)C(=O)[C@]1(C)CO [140 (W376), (S)-5-(hydroxymethyl)-4,5-dimethyl-2-(((6-((2-(trifluoromethyl)pyrimidin-5-yl)oxo)pyridine-3-Base)methyl)amino)-4,5,9,10-tetrahydro-6H,8H-pyrido[3,2,1-de]pteridin-6-one] |  | > 10000 | 49 |
| COCCC1C(=O)N2CCCc3nc(NCc4ccc(Oc5ccc(C(F)(F)F)nc5)nc4)nc(c32)N1C (stereo not drawn) [213 (W355)] | 69 | > 10000 | 53 |
| CCn1nc(C(F)(F)F)c(C2CC2)c1Oc1ccc(CNc2nc3c4c(n2)N(C)[C@@](C)(CO)C(=O)N4CCC3)cn1 [233 (W419)] |  | > 10000 | 52 |
| CN1CC2(CC2)Cn2ccc3nc(NCc4cnn(Cc5ccc(C(F)(F)F)nc5)c4)nc1c32 [76 (W83)] | 67 |  |  |
| CN1c2nc(NCc3ccc(Oc4ccc(C(F)(F)F)nc4)nc3)nc3c2N(CCC3)C(=O)[C@]1(C)CO [133 (W377), (S)-5-(hydroxymethyl)-4,5-dimethyl-2-(((6-((6-(trifluoromethyl)pyridin-3-yl)oxo)pyridine-3-yl)methyl)amino)-4,5,9,10-tetrahydro-6H,8H-pyrido[3,2,1-de]pteridin-6-one] | 58 | > 10000 | 35 |
| CN1c2nc(NCc3ccc(Oc4cc(C(F)(F)F)nn4C)nc3)nc3c2N(CCC3)C(=O)[C@]1(C)CO [223 (W403)] | 59 | > 10000 | 35 |
| [2H]C([2H])([2H])n1nc(C(F)(F)F)cc1Oc1ccc(CNc2nc3c4c(n2)N(C)[C@@H](CO)C(=O)N4CCC3)cn1 [241 (W431)] | 9.3 | > 10000 | 11.5 |
| CN1c2nc(NCc3ccc(Oc4cnc(C(F)(F)F)nc4)nc3)nc3c2N(CCC3)C(=O)[C@@H]1C1CCOCC1 [218 (W339)] | 30 | > 10000 | 17 |
| CN1c2nc(NCc3ccc(Oc4ccc(C(F)(F)F)nc4)nc3)nc3c2N(CCC3)C(=O)[C@]12CCOC2 [209 (W405)] |  | > 10000 | 30 |
| CN1c2nc(NCc3ccc(Oc4cnc(C(F)(F)F)nc4)nc3)nc3c2N(CCC3)C(=O)[C@]12CCOC2 [225 (W407)] |  | > 10000 | 57 |
| C[C@H]1Cn2ccc3nc(NCc4cnn(CCc5ccc(F)cc5)c4)nc(c32)N1C [66 (W43)] | 11 |  |  |
| CN1c2nc(NCc3ccc(Oc4ccc(C(F)(F)F)nc4)nc3)nc3c2N(CCC3)C(=O)C12CCOCC2 [216 (W352)] |  | > 10000 | 39 |
| [2H]C([2H])([2H])N1c2nc(NCc3ccc(Oc4cnc(C(F)(F)F)nc4)nc3)nc3c2N(CCC3)C(=O)[C@]1(C)CO [221 (W399)] |  | > 10000 | 43 |
| CN1c2nc(NCc3ccc(Oc4cnc(C(F)(F)F)nc4)nc3)nc3c2N(CCC3)C(=O)C12CC2 [175 (W327)] | 28 |  |  |
